Measurements reported in US20050123603A1, “Natural menaquinone 7 compositions” (Natural ASA, priority 2003, published 2005).

Assays:
[1] = serum vitamin K (K1, MK-7) during 6-week daily supplementation with nattoK2 capsules or K1; format: in vivo, human
Method: (§1) An open study was conducted in which 12 volunteers were randomized in two groups receiving either 180 μg MK-7 (menaquinone 7, 0.27 μmol) or 150 μg K1 (0.33 μmol) per day. The MK-7 was obtained from 2 nattoK2 capsules (Natural ASA) per day, the K1 from a pharmacological preparation (Roche). The supplements were taken at 18.00 h of each day during the 6-week study period. Blood was taken between 08.00 and 09.00 h of days 0 (baseline), 3, 7, 14, 21, 28, 35, and 42. A non-treated control group (n=3) served as a reference group, with blood drawings on days 0, 14, 28, and 42.
(§2) Measurements: vitamin K1, MK-7, under-carboxylated osteocalcin (ucOC) and carboxylated osteocalcin (cOC).
(§3) Study population: 6 men and 6 women, aged 55-60 (women postmenopausal). Non-treated controls: 1 man, 2 women in the same age range.
MK-7 and K1 have different molecular weights (650 and 450, respectively). Therefore, all doses and concentrations were calculated on a molar basis. Since the daily dose of MK-7 from natto was 18% lower than that from K1 (0.27 and 0.33 μmol/day, respectively), it should be kept in mind that the expected results for natto capsules are similarly lower compared to those for K1. […] The normal ranges for K1 and MK-7 in non-treated subjects are between 500 and 1000 pmol/L (FIG. 5C). […] Due to the limited number of participants, the mean baseline levels in the various groups may differ.

[2] = system: under-carboxylated osteocalcin (ucOC); assay: serum under-carboxylated osteocalcin (ucOC) during 6-week supplementation; format: in vivo, human
Method: as §1, §2, §3

[3] = system: carboxylated osteocalcin (cOC); assay: serum carboxylated osteocalcin (cOC) during 6-week supplementation; format: in vivo, human; conditions: 6-week daily supplementation, K1 150 μg or 180 μg MK-7 from nattoK2, FIG. 8
Method: as §1, §2, §3

[4] = system: osteocalcin; assay: vitamin K status of bone, cOC/ucOC ratio, during 6-week supplementation; format: in vivo, human
Method: as §1, §2, §3
(§4) These values are needed to calculate the vitamin K-status in bone (the ratio cOC/ucOC) and to estimate the bone metabolic activity (cOC+ucOC). Here a remarkable difference between the effects of K1 and nattoK2 (i.e.: MK-7) was found: whereas cOC was increased by K1 supplementation, it was decreased by nattoK2. The importance of this finding will become clear from FIGS. 9 and 10.

[5] = system: osteocalcin; assay: bone turnover measured as ucOC+cOC during 6-week supplementation; format: in vivo, human
Method: as §1, §2, §3, §4

[6] = system: bone loss; conditions: postmenopausal women, intervention studies; cited from earlier work

SMILES | serum K1 level, plateau value ([1]; K1 150 μg (0.33 μmol) per day, blood taken about 15 h after intake, mean) | serum K1 level at 15 h after ingestion ([1]; K1 150 μg per day) | time to plateau of serum K1 ([1]; K1 150 μg per day) | increase in total vitamin K status relative to baseline (mean plateau value) ([1]; K1 150 μg per day, 6 weeks, FIG. 6) [pmol/L] | serum K1 level at baseline ([1]; K1 group, day 0, mean) [pmol/L] | time to reach decreased ucOC value ([2]; K1 150 μg per day) | serum ucOC after treatment ([2]; K1 150 μg per day, value reached within three days) [µg/L] | serum ucOC at baseline ([2]; K1 group) [µg/L] | treatment-induced change in serum carboxylated osteocalcin (cOC) [3] | time to plateau levels of the cOC/ucOC ratio ([4]; K1 supplementation) [days] | bone turnover measured as ucOC+cOC, end of regimen ([5]; K1 150 μg per day, 6 weeks) | bone turnover measured as ucOC+cOC, start of regimen ([5]; K1 group) | lower rate of bone loss in supplemented groups [6] [%] | time at which mean cOC/ucOC ratio crosses the K1 curve ([4]; menaquinone 7 supplementation, ratio increased gradually, no levelling off) [week]
CC1=C(C/C=C(\C)CCC[C@H](C)CCC[C@H](C)CCCC(C)C)C(=O)c2ccccc2C1=O [K1] | around 2000 pmol/L | near-baseline levels | within the first three days | 1500 | 816 | within three days | 1.7 | 2.1 | increased | 3 | 5.33 | 5.28 | 40 | –
CC(C)=CCC/C(C)=C/CC/C(C)=C/CC/C(C)=C/CC/C(C)=C/CC/C(C)=C/CC/C(C)=C/CC1=C(C)C(=O)c2ccccc2C1=O [menaquinone 7, (all-E)-2-(3,7,11,15,19,23,27-Heptamethyl-2,6,10,14,18,22,26-octacosaheptaenyl)-3-methyl-1,4-naphthalenedione] | – | – | – | – | – | – | – | – | – | – | – | – | – | 5
